Results reported in patent publication US20060287316A1, “METHOD FOR IMPROVING PHARMACOKINETICS OF PROTEASE INHIBITORS AND PROTEASE INHIBITOR PRECURSORS” (priority 2005, published 2006).
In brackets after ≈: the same amount, converted by molar mass. Several values for one entry are separate records, joined by “and”; a condition that tells them apart may be missing. Equal values may be shown once.

Tests used:
[1] = Effect of CYP450 inhibitors on metabolism of HIV-1 protease inhibitors in human liver microsomes; assay type: in vitro ADME
Description: The effect of CYP450 inhibitors on the metabolism of HIV-1 anti-protease was tested in human liver microsomes.

[2] = system: laboratory adapted HIV strain (NL4-3); assay: microbe, parasite or virus in culture
Description: Briefly, the antiviral activity of PL-100 was determined using MT4 cells infected with a laboratory adapted HIV strain (NL4-3). For comparison, seven approved protease inhibitors (PIs) were tested in parallel.
The effect of 40% human serum on the antiviral activity of PL-100 in MT4 cells infected with NL4-3 was therefore evaluated.

CYP3A4/5 = assay: Inhibition of CYP450 sub-families; assay type: biochemical; conditions: FIG. 10
[3] = Pharmacokinetics of PL-100 and PL-461 in rats; assay type: in vivo, Sprague Dawley rats (Rattus norvegicus); conditions: 5 mg/kg i.v., female rats
Description: Animal tested are Sprague Dawley rats (species Rattus norvegicus) of 6-7 weeks old at the start of dosing and were obtained from Charles River (Montreal, Canada). The study usually comprises about 6 animals per groups. […] The rats were fasted 3 h. before dosing and 3 h. after dosing. The formulations are prepared as indicated below. The solutions are stable at room temperature over a week and are covered with aluminum foil to avoid lights. […] The dosing volume for all formulations is 2 mL per kg body weight. Blood sample was collected at 15 min, 30 min, 45 min, 1 […] after the dosing. Blood samples were centrifuged to separate the plasma and separated plasma samples were placed into cryovials and frozen at -80° C. for further analysis. Plasma samples together with standards and quality control samples were treated by protein precipitation and then analyzed by HPLC-MS. […] The PK profile was obtained by administration of the test drugs; PL-100 and PL-461 in rats. […] The pharmacokinetic parameters of PL-100 and PL-461 in rats** was compared.

[4] = Plasma concentration after single oral dose in rats (in vivo cleavage of the phosphate group); design: species or system male Sprague-Dawley rats; conditions: 50 mg/Kg po, vehicle Mix, 3 rats
Description: To assess the extent of in vivo cleavage of the phosphate group from the putative compounds, PL-100, PL-462 (based on PL-100), PL-337 and PL-515 (based on PL-337) compounds were administered po (per os, (i.e., by mouth)) (50 mg/kg) to male Sprague-Dawley rats and their plasma concentration measured at different time intervals post-administration.
All test articles (PL-100, PL-462, PL-337 and PL-515) were prepared in different vehicle at the final concentration of 25 mg/mL. The vehicle composition is as follows: (1) 20% ethanol; 50% propylene glycol; 0.05% w/v Tween 20 and water (Mix); (2) PBS buffer (PBS).
Test articles were administered to male Sprague-Dawley rats at a single oral dose of 50 mg/kg. Each article was tested in three rats. Blood samples (0.2-0.3 mL) were collected at the post-dose time of 10, 20, 40, 60, 120, 180 and 360 minutes. The harvested blood was centrifuged to isolate plasma. The resulting plasma was separated and stored at −70° C.
Plasma samples together with standards and quality control samples were treated to precipitate proteins, then analyzed by HPLC-MS, for the presence of PL-462, PL-100, PL-515 and PL-337.

Water solubility = assay type: physicochemical; conditions: water, pH 7.5, aqueous buffer
[5] = Sprague Dawley, rat, plasma, iv

COC(=O)N[C@H](C(=O)NCCCC[C@@H](CO)N(CC(C)C)S(=O)(=O)c1ccc(N)cc1)C(c1ccccc1)c1ccccc1 [PL-100, (1S,5S)-(1-{5-[(4-amino-benzenesulfonyl)-isobutyl-amino]-6-hydroxy-hexylcarbamoyl}-2,2-diphenyl-ethyl)-carbamic acid methyl ester]
Effect of CYP450 inhibitor on metabolism ([1]; with ketoconazole and sulfaphenazole (FIG. 6)): able to increase the PK of PL-100 | Effect of CYP450 inhibitor on metabolism ([1]; with ritonavir (FIG. 6)): most effective combination | EC50 ([2]; Human immunodeficiency virus 1, NL43, MT4, MT4 cells infected with NL4-3): 16 nM | EC50 ([2]; Human immunodeficiency virus 1, NL43, MT4, culture condition 10% FBS): 18 nM | EC50 ([2]; Human immunodeficiency virus 1, NL43, MT4, culture condition 10% FBS + 40% human serum): 100 nM | Fold Change in EC50 ([2]; culture condition 10% FBS): 1.0 | Fold Change in EC50 ([2]; culture condition 10% FBS + 40% human serum): 6 and 5.9 | SI (CC50/EC50) ([2]; ratio of cytotoxicity (CC50) to antiviral activity (EC50)): 2,063 | Inhibition of CYP3A4/5 (CYP3A4/5): inhibits CYP3A4/5 | Cl_F [3]: 58.3 mL/min/kg | Tlast [3]: 6 h | Vz_F [3]: 6.1 L/kg | λz [3]: 0.52 h⁻¹ | concentration at 6 hr ([3]; Sprague Dawley, rat, plasma, intravenous, read-out: Clast): 44 ng/mL | AUC(0-inf) [3, 5]: 1430 ng·h/mL | AUC(0-t) [3, 5]: 1370 ng·h/mL | Cmax [3, 5]: 1800 ng/mL | Tmax [3, 5]: 6 min | half-life ([3]; Sprague Dawley, rat, plasma, iv, read-out: T½ (converted)): 72 min | AUC [4]: 0.675 ± 0.171 μg/hr * ml | Cmax [4]: 498 ± 203 nM | Tmax [4]: 40 ± 16 min | solubility (Water solubility): 79 µg/mL (≈ 126 µM)
